In patent US20100317733A1, “USE OF CIS-EPOXYEICOSANTRIENOIC ACIDS AND INHIBITORS OF SOLUBLE EPOXIDE HYDROLASE TO REDUCE PULMONARY INFILTRATION BY NEUTROPHILS” (THE REGENTS OF THE UNIVERSITY OF CALIFORNIA, priority 2004, published 2010):
Entries after “also recorded” stand apart in the source; their conditions may differ.

Experiments:
[1] = system: cells in BAL from rats exposed to tobacco smoke; test: Bronchoalveolar lavage (BAL) cell counts and differentials in rats exposed to tobacco smoke for 3 days; format: in vivo, SH rats; conditions: for % Eosinophils / % Lymphocytes / % Macrophages / % Neutrophils: cell differential in BAL, 3 days, mean ± SE (n = 4)
Source text: Animals. Healthy, 11-week-old male spontaneously hypertensive (“SH”) (SHR/NCrlBR) rats (derived from WKY rats by phenotypic segregation of the hypertensive trait and inbreeding) were purchased from Charles River Laboratories (Portage, Mich.) and quarantined for 1 week prior to exposure to tobacco smoke. Animals were handled in accordance with standards established by the U.S. Animal Welfare Acts set forth in National Institutes of Health guidelines and the University of California, Davis Animal Care and Use Committee. The rats were housed in plastic cages with TEK-Chip pelleted paper bedding (Harlan Teklad, Madison, Wis.) and maintained on a 12 hour light/12 hour dark cycle. All animals had access to water and Laboratory Rodent Diet 5001 purchased from LabDiet (Brentwood, Mo.) ad libitum before, during and after exposures.
Subcutaneous Implantation of EETs for Tobacco Smoke Exposures. Wax formulations containing EETs were implanted subcutaneously 1 day prior to onset of exposure to tobacco smoke. Animals were implanted with the EETs formulation on the day before the first day of exposure. Four animals from the control group and four animals from the tobacco smoke-exposed group were implanted with the EETs formulation. The approach of a single subcutaneous implantation for the 3-day study was selected to minimize stress to animals from anesthesia.
Subcutaneous injection of AUDA-nBE for Tobacco Smoke Exposures. AUDA-nBE (7 mg/1 ml corn oil) was subcutaneously administered in SH rats at a dose of 10 mg/kg bodyweight. The total volume injected was 0.36 to 0.46 ml. Animals were injected with AUDA-nBE each day prior to exposure. Doses of AUDA-nBE used in this study were selected based on results from preliminary pharmacokinetic studies in mice and rats. These doses were selected to provide optimal efficacy and minimal toxicity over a three-day period. Four animals from the control group and four animals from the tobacco smoke-exposed group were injected with AUDA-nBE. Four animals with EETs implants from the control group and four animals with EETs implants from the tobacco smoke-exposed group were injected with AUDA-nBE. In addition, four control animals and four tobacco smoke-exposed animals were injected with corn oil using the same protocol as the AUDA-nBE -injected animals.
Tobacco Smoke Exposure. Rats were exposed to a mixture of sidestream and mainstream cigarette smoke in a smoking apparatus (Teague, S. V. et al., Inhal. Toxicol. 6:79-93 (1994)). The cigarettes were humidified 2R4F research cigarettes (Tobacco Health Research Institute; Lexington, Ky.). An automatic metered puffer was used to smoke the cigarettes under Federal Trade Commission conditions (35 ml puff, 2 sec duration, 1 puff per min). The smoke was collected in a chimney, diluted with filtered air, and delivered to whole-body exposure chambers. The exposures were characterized for three major constituents of cigarette smoke; nicotine, carbon monoxide, and total suspended particulates (TSP). […] Carbon monoxide was measured every 30 minutes, TSP every 2 hours, and nicotine once per day (approximately midway through the exposure period).
Bronchoalveolar Lavage. Established protocols were followed for bronchoalveolar lavage (BAL) of animals (Gossart, S. et al., J. Immunol. 156:1540-1548 (1996)). Eighteen hours after the last exposure to tobacco smoke, animals were anesthetized with an overdose of sodium pentobarbital. The trachea was cannulated and the lung lavaged with one aliquot of Ca^2+/Mg^2+-free phosphate buffered saline (PBS, pH 7.4). The volume of the aliquot was equal to 35 ml/kg body weight (approximately 90% of total lung capacity). The aliquot was instilled into the lungs three times before final collection. The BAL fluid (BALF) was immediately centrifuged at 250×g for 10 min at 4° C. to remove cells. The cell pellet was then resuspended in PBS and the cells counted with a hemocytometer. […]

[2] = Pharmacokinetics in SH rats following subcutaneous administration; format: in vivo
Procedure: Equipment. LC-MS-MS analysis was performed using a Micromass Quattro Ultima triple quadrupole tandem mass spectrometer (Micromass, Manchester, UK) equipped with atomospheric pressure ionization source [atomospheric z-spray pressure chemical ionization (APcI) or electrospray ionization (ESI) interface]. The HPLC system consisted of a Waters model 2790 separations module (Waters Corporation, Milford, Mass.) including an autosampler with refrigerated sample compartment and as inline vacuum degasser and Waters model 2487 dual λ absorbance detector (Waters Corporation). An XTerra™MS C18 column (30×2.1 mm I. D., 3.5 μm; Waters Corporation) was used with a flow rate of 0.3 mL/min at ambient temperature. Data were manipulated with MassLynx software (Ver. 4.0).
LC-MS-MS conditions. The ESI mass spectrometer was operated in the positive ion mode with a capillary voltage at 1.0 kV. Cone gas (N2) and desolvation gas (N2) were maintained at flow rates of 130 and 630 L/h, respectively. The source and the desolvation temperature were set at 100° C. and 300° C., respectively. […] Quantitative analysis was performed in the multiple reaction monitoring (MRM) mode with a dwell time of 300 ms. Ultra pure argon (99.9999%) was used as a collision gas at a pressure of 2.5 milli-torr for collision-induced dissociation (CID). […]
Pharmacokinetics analysis. […] AUCt was calculated by the linear/log trapezoidal rule.

[3] = system: tobacco smoke-induced inflammation in the lungs of rats; conditions: Smith 2002; cited from earlier work
sEH = target: T1, sEH (Homo sapiens, UniProt P34913); test: Inhibition of soluble epoxide hydrolase (sEH); format: biochemical
T1 sequence (P34913 1-555): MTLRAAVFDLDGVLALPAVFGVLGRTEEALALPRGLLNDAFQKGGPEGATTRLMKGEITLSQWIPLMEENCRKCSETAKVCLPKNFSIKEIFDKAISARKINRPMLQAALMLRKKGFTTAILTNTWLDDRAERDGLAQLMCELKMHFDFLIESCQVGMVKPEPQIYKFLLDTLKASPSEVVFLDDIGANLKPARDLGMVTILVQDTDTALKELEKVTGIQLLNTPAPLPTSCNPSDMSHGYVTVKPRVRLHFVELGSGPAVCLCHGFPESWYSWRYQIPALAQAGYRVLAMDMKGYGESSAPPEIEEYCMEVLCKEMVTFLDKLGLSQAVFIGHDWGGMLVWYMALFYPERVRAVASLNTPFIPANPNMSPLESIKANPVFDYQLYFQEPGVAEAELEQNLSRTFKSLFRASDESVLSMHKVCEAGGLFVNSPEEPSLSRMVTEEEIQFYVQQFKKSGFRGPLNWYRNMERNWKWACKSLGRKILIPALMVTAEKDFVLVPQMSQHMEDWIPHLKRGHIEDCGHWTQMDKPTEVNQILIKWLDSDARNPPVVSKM
Source text: The enzyme also can be detected based on the binding of specific ligands to the catalytic site which either immobilize the enzyme or label it with a probe such as dansyl, fluoracein, luciferase, green fluorescent protein or other reagent.
The assays are normally carried out with a recombinant enzyme following affinity purification.

[4] = Metabolic stability (stated, no method)

CCCCOC(=O)CCCCCCCCCCCNC(=O)NC12CC3CC(CC(C3)C1)C2 [AUDA-nBE, 12-(3-adamantane-1-yl-ureido)-dodecanoic acid butyl ester]
% Eosinophils ([1]; filtered air): 0.15 ± 0.10%
% Lymphocytes ([1]; filtered air): 0.55 ± 0.15%
% Macrophages ([1]; filtered air): 92.1 ± 1.6%
% Neutrophils ([1]; filtered air): 7.3 ± 1.8%
% Eosinophils ([1]; tobacco smoke): 0.10 ± 0.10%
% Lymphocytes ([1]; tobacco smoke): 0.25 ± 0.10 %
% Macrophages ([1]; tobacco smoke): 62.9 ± 1.8 %
% Neutrophils ([1]; tobacco smoke): 36.8 ± 1.6 %
reduction in the number of neutrophils found in the lungs ([1]; rats, animal model of COPD (tobacco smoke), FIG. 4): ~55%
total number of cells in BALF ([1]; tobacco smoke 3 days, treatment before exposure, FIG. 2): significantly decreased
number of BALF macrophages ([1]; tobacco smoke 3 days, treatment before exposure, FIG. 3): significantly decreased; also recorded: significant reductions
number of BALF neutrophils ([1]; tobacco smoke 3 days, treatment before exposure, FIG. 4): significantly decreased; also recorded: significant reductions
number of BALF lymphocytes ([1]; tobacco smoke 3 days, treatment before exposure, FIG. 5): decreased the number of BALF lymphocytes to levels not significantly different from filtered air controls; also recorded: significant reductions
metabolism of the prodrug ([2]; subcutaneous administration): metabolized to AUDA

CCN1C=CN(CC)C1=C1C2=NC(=C(c3n(CC)cc[n+]3CC)C3=NC(=C(c4n(CC)cc[n+]4CC)c4ccc([n-]4)C(c4n(CC)cc[n+]4CC)=C4C=CC1=N4)C=C3)C=C2.[Cl-].[Cl-].[Cl-].[Cl-].[Cl-].[Mn+3] [AEOL 10150]
tobacco smoke-induced inflammation in the lungs [3]: decrease

CCCCCCCCCCCCNC(=O)NC12CC3CC(CC(C3)C1)C2 [ADU, N-Adamantyl-N′-dodecyl urea]
activity as an inhibitor of sEH (sEH): particularly high activity
metabolic stability [4]: metabolically stable

O=C(O)CCCCCCCCCCCNC(=O)NC12CC3CC(CC(C3)C1)C2 [AUDA]
half-life ([2]; blood, single subcutaneous dose of AUDA-nBE 10 mg/kg): 22 h
